Reference: article PMC9571290, “Preliminary Structure–Activity Relationship Study of the MMV Pathogen Box Compound MMV675968 (2,4-Diaminoquinazoline) Unveils Novel Inhibitors of Trypanosoma brucei brucei” (Molecules, 2022)
Read-outs that look alike come from different tables or passages of the source.

Experiments:
[1] = tested on: bloodstream forms of Trypanosoma brucei brucei; test: resazurin-based antitrypanosomal inhibition assay; type: cell-based; conditions: for pIC50 T. b. b.: Table 3
Protocol: Parasites were axenically cultivated in sterile vented flasks containing complete Hirumi’s modified Iscove’s medium 9 (HMI-9) [500 mL IMDM (Iscove’s modified Dulbecco’s medium) (Gibco, Waltham, MA, USA) supplemented with 10% (v/v) heat-inactivated fetal bovine serum (HIFBS) (Sigma Aldrich), 10% (v/v) serum plus (Sigma Aldrich), HMI-9 supplement (1 mM hypoxanthine, 0.16 mM thymidine, 50 µM bathocuproine disulfonic acid, 1.5 mM cysteine, 1.25 Mm pyruvic acid, 0.2 mM 2-mercaptoethanol (Sigma Aldrich)), and 1% (v/v) penicillin–streptomycin (Sigma Aldrich) and incubated at 37 °C in a 5% CO2 atmosphere.
The in vitro inhibitory potency of the 400 MMVPB compounds against bloodstream forms of Trypanosoma brucei brucei was evaluated using the resazurin-based inhibition assay as previously described. Briefly, parasites at their mid-logarithmic growth phase were counted, and the cell density was adjusted with fresh complete HMI-9 medium to 2 × 10^5 trypanosomes per mL. Then, 90 µL of parasite suspension was then distributed into the wells of 96-well flat-bottomed plates containing 10 µL of compounds for a final test concentration of 10 µM. […] Each assay plate was set up in duplicate and repeated two times. The percent parasite inhibition was determined for each compound based on fluorescence readouts relative to the mean fluorescence of negative control wells.
y = 100/[1+ 10^(logIC50/99-x)H], where H is the hill coefficient or slope factor [60].

[2] = in vitro; conditions: African green monkey
Protocol: (§1) The resulting pellet was resuspended and counted in a Neubauer chamber in the presence of trypan blue to exclude nonviable cells colored in blue. Once the cell load was estimated, they were either used for the next passage in a new flask or processed for the cytotoxicity assay.
(§2) Briefly, Vero cells at a density of 10^4 cells per well were plated in 100 µL of complete DMEM and incubated overnight to allow cell attachment. Plates were then controlled under an inverted fluorescence microscope (Lumascope LS520) to ensure adherence, sterility and cell integrity. Thereafter, culture medium from each well was carefully emptied, and plates were filled with 90 µL of fresh complete medium followed by the addition of 10 µL of serial 5-fold dilutions of compound solutions. […] Fluorescence was then read using a Magelan Infinite M200 fluorescence multiwell plate reader (Tecan) with excitation and emission wavelengths of 530 and 590 nm, respectively. The percentage of cell viability was calculated from readouts, and the median cytotoxic concentration (CC50) for each compound was deduced from concentration–response curves using GraphPad Prism 8.0 software as described above. Selectivity indexes were then determined for each test substance as follows: SI = CC50(Vero cells)/IC50(T. brucei brucei).

[3] = tested on: Vero cells; test: cytotoxicity against Vero cells (resazurin viability assay); conditions: read-out: CC50 Vero; Table 3
Protocol: as §1, §2

[4] = Table 3, MMVPB compounds with known potency against other diseases, read-out: IC50 ± SD T. b. b.
[5] = Trypanosoma brucei, Table 1, reference drugs included in MMVPB, read-out: IC50 ± SD T. b. b.
[6] = Trypanosoma brucei, Table 1, negative log of IC50 in molar, read-out: pIC50 T. b. b. (converted)
[7] = Trypanosoma brucei, Table 4, analogs of MMV675968, solid material, read-out: IC50 ± SD T. b. b.
[8] = Trypanosoma brucei, Table 4, negative log of IC50 in molar, read-out: pIC50 T. b. b. (converted)

| Compound | IC50 [1, 4] | pIC50 T. b. b. ([1]; negative log of IC50 in molar) | CC50 [3] | other results |
| --- | --- | --- | --- | --- |
| CC(Oc1ccccc1)C(=O)Nc1nc(-c2ccccn2)cs1 (stereo not shown) [MMV676411] | 9.44 ± 0.09 µM | 5.02 |  |  |
| O=C(Cn1ccnc1[N+](=O)[O-])NCc1ccccc1 [MMV688773, Benznidazole, reference compound] |  |  |  | IC50 [1, 5]: 0.3 ± 0.01 µM; IC50 [1, 6]: 0.302 µM; CC50 at 48 h [2]: > 100 µM |
| COc1ccccc1NCc1ccc2nc(N)nc(N)c2c1Cl [Analog 3] |  |  |  | IC50 [1, 7]: 3.2 ± 0.03 µM; IC50 [1, 8]: 3.24 µM; CC50 at 48 h [2]: 20.4 ± 0.7 µM |
| O=C(NCCN1CCCC1)c1cc(NCCCCN2CCC(F)(F)CC2)nc2ccc(Cl)cc12 [MMV667494] | 1.3 ± 0.5 µM | 5.88 | > 100 µM |  |
| COc1cccc(-c2nc3c(N4CCCC4)cccc3n2CC2CCCN2)n1 (stereo not shown) [MMV687703] | 1.7 ± 0.06 µM | 5.76 | > 100 µM |  |
| Cc1ccccc1NC(=O)c1ccc2nc(N)nc(N)c2c1 [Analog 15] |  |  |  | IC50 [1, 7]: > 10 µM; CC50 at 48 h [2]: > 100 µM |
| O=C(Nc1ccc(N2CCNCC2)nc1)c1oc(-c2ccccc2)nc1C(F)(F)F [MMV024937] | 1.4 ± 0.5 µM | 5.85 | 14.6 ± 0.6 µM |  |
| Cn1c(=O)c2c(S(C)(=O)=O)snc2n(C)c1=O [MMV687251] | 1.9 ± 0.01 µM | 5.72 | 6.4 ± 2 µM |  |
| COc1cccc(CNC(=O)c2cnc(N)nc2N)c1 [Analog 19] |  |  |  | IC50 [1, 7]: > 10 µM; CC50 at 48 h [2]: > 100 µM |
| COc1ccc(NCc2ccc3nc(N)nc(N)c3c2)cc1 [Analog 8] |  |  |  | IC50 [1, 7]: 0.25 ± 0.01 µM; IC50 [1, 8]: 0.251 µM; CC50 at 48 h [2]: 30.9 ± 2.3 µM |
| Brc1cncc(-c2cc(NCCCn3ccnc3)nc(-c3ccccc3)n2)c1 [MMV661713] | 1.9 ± 0.02 µM | 5.72 | > 100 µM |  |
| COc1cc([C@@H]2c3cc4c(cc3[C@H](O)[C@H]3COC(=O)[C@H]23)OCO4)cc(OC)c1OC [Podophyllotoxin, reference compound] |  |  |  | CC50 at 48 h [2]: 0.43 ± 0.14 µM |
| O=C(Nc1ccc(N2CCNCC2)cc1)c1ccn2ncc(-c3cccc(Cl)c3)c2n1 [MMV022478] | 1.7 ± 0.01 µM | 5.76 | 11.42 ± 0.07 µM |  |
| COc1cccc(CNC(=O)c2ccc3nc(N)nc(N)c3c2)c1 [Analog 14] |  |  |  | IC50 [1, 7]: 2.5 ± 0.13 µM; IC50 [1, 8]: 2.51 µM; CC50 at 48 h [2]: > 100 µM |
| COc1ccccc1NC(=O)c1cnc(N)nc1N [Analog 21] |  |  |  | IC50 [1, 7]: > 10 µM; CC50 at 48 h [2]: > 100 µM |
| NC(=O)c1cc(-c2ccsc2)ccc1OCCOc1ccccc1 [MMV687138] | 0.5 ± 0.01 µM |  | > 100 µM |  |
| COc1ccc(NC(=O)c2cnc(N)nc2N)cc1 [Analog 20] |  |  |  | IC50 [1, 7]: > 10 µM; CC50 at 48 h [2]: > 100 µM |
| CC(=O)N1CCc2cc3nc(C)cc(C)c3cc21 [MMV054312] | 1.29 ± 0.42 µM | 5.88 | > 100 µM |  |
| Cc1[nH]c2ccccc2c1C(c1cccs1)N1CCN(C)CC1 (stereo not shown) [MMV688768] | 8.36 ± 0.08 µM | 5.07 | > 100 µM |  |
| COc1cc(-c2cc(-c3ccc(S(C)(=O)=O)cc3)cnc2N)ccc1O [MMV010576] | 1.5 ± 0.3 µM | 5.82 | > 100 µM |  |
| CNc1nnc(Sc2cnn(-c3ccccc3)c(=O)c2Cl)s1 [MMV688763] | 0.8 ± 0.1 µM |  | 8.14 ± 0.01 µM |  |
| Nc1ncc(C(=O)Nc2cccnc2)c(N)n1 [Analog 22] |  |  |  | IC50 [1, 7]: > 10 µM; CC50 at 48 h [2]: > 100 µM |
| COc1ccc(-c2cncc3ccc(C(=O)NCCCn4ccnc4)nc23)cc1 [MMV020670] | 1.9 ± 0.02 µM | 5.72 |  |  |
| Cc1cnc(N2CCN[C@@H](Cc3ccccc3)C2)nc1Oc1ccc(-n2ccnc2)cc1 [MMV687765] | 2.3 ± 0.3 µM | 5.64 | > 100 µM |  |
| CC(C)n1nc(-c2cc3c(Cl)cccc3[nH]2)c2c(N)ncnc21 [MMV688417] | 4.38 ± 0.9 µM | 5.36 | 13.6 ± 2.9 µM |  |

| Compound | IC50 [1, 4] | pIC50 T. b. b. ([1]; negative log of IC50 in molar) | CC50 [3] | other results |
| --- | --- | --- | --- | --- |
| CCOc1ccc2cc(-c3nn(CC4CCN(C)CC4)c4ncnc(N)c34)ccc2c1 [MMV688854] | 8.5 ± 0.06 µM | 5.07 | 13.4 ± 1.5 µM |  |
| CNCCC(Oc1ccc(C(F)(F)F)cc1)c1ccccc1 (stereo not shown) [MMV001561, fluoxetine, reference compound] |  |  |  | CC50 at 48 h [2]: 41.5 ± 1 µM |
| CC(C)(C)c1cnc(NC(=O)c2ccccc2O)s1 [MMV495543] | 0.7 ± 0.25 µM |  |  |  |
| O=C(C(Cc1c[nH]c2ccccc12)NS(=O)(=O)c1ccc(Cl)cc1)N1CCCCC1 (stereo not shown) [MMV085210] | 0.9 ± 0.1 µM |  | > 100 µM |  |
| CN1CCC(c2cc(-c3ccncc3)c(-c3ccc(F)cc3)[nH]2)CC1 [MMV688703] | 3.18 ± 1.3 µM | 5.49 |  |  |
| Cc1cc(Nc2ccncc2)n2nc(C)c(-c3ccccc3Cl)c2n1 [MMV016136] | 8.61 ± 0.3 µM | 5.06 |  |  |
| Nc1nccc2ccc(-c3ccc4nccn4c3)cc12 [MMV023233] | 8.43 ± 0.06 µM | 5.07 | 29.8 ± 0.7 µM |  |
| CN1CCC(NCc2cccc(-c3ccc(S(=O)(=O)NCc4ccccc4)cc3)c2)CC1 [MMV022029] | 1.7 ± 0.7 µM | 5.76 | 13.1 ± 0.2 µM |  |
| O=C(Nc1ccccc1)c1ccc(-c2cc3ccncc3cc2OC2CCNCC2)s1 [MMV024035] | 1.8 ± 0.1 µM | 5.74 | 35.75 ± 0.08 µM |  |
| O=C(Nc1ccc(C(F)(F)F)c(C(F)(F)F)c1)c1cc(Cl)ccc1O [MMV687807] | 0.5 ± 0.04 µM |  | 11 ± 1.3 µM |  |
| CN(C)c1cc(NC(=O)Nc2ccccc2)c2ccccc2n1 [MMV006901] | 8.45 ± 0.05 µM | 5.07 | 14.6 ± 0.02 µM |  |
| CS(=O)(=O)c1ccc(C(=O)N(CC2CCCO2)c2nc3ccccc3s2)cc1[N+](=O)[O-] (stereo not shown) [MMV688761] | 8.33 ± 0.09 µM | 5.08 | > 100 µM |  |
| Nc1nc2cc(-c3cncc(Oc4ccc(F)cc4)c3)ccc2[nH]1 [MMV687248] | 0.5 ± 0.07 µM |  | > 100 µM |  |
| Cc1cc(C)nc(-n2nc(C)cc2Nc2ccccc2)n1 [MMV062221] | 1.7 ± 0.6 µM | 5.76 |  |  |
| COc1cc(NC(C)CCCN)c2ncccc2c1 (stereo not shown) [MMV000023, Primaquine, reference compound] |  |  |  | IC50 [1, 5]: 8.4 ± 0.01 µM; IC50 [1, 6]: 8.51 µM |
| CCOC(=O)c1c(NC(=O)c2c(F)c(F)c(F)c(F)c2F)sc(C(N)=O)c1C [MMV153413] | 1.7 ± 0.1 µM | 5.76 | > 100 µM |  |
| O=C(Nc1nc(-c2ccccn2)cs1)c1cncn1-c1ccccc1 [MMV676512] | 1.9 ± 0.07 µM | 5.72 |  |  |
| CN1CCN(CCCOc2ncc(Nc3ncc(-c4ccc(C(F)(F)F)c(F)c4)nc3C(N)=O)cn2)CC1 [MMV687812] | 1.7 ± 0.1 µM | 5.76 | 2.66 ± 0.3 µM |  |
| CCc1ccc(S(=O)(=O)Nc2cc(CN3CCN(CCC(C)C)CC3)ccc2C)cc1 [MMV688124] | 2.9 ± 0.08 µM | 5.53 | > 100 µM |  |
| COc1ccc(CCN2CCC(NCc3cccc(N(C)C)c3)CC2)cc1 [MMV011511] | 8.94 ± 0.7 µM | 5.05 | > 100 µM |  |
| c1cncc(NCc2ccc(-c3cc4ccncc4cc3OC3CCNCC3)s2)c1 [MMV023969] | 8.09 ± 0.3 µM | 5.09 | 26.3 ± 0.4 µM |  |
| OCCc1ccc(Nc2nccc(-c3nnc4ccccn34)n2)cc1 [MMV028694] | 1.8 ± 0.1 µM | 5.74 | 10.36 ± 0.1 µM |  |
| COc1ccc(N(CCc2cccc(C)n2)C(=O)C2CCCCC2)cc1 [MMV675996] | 0.8 ± 0.02 µM |  |  |  |
| Cc1ccc2[nH]c(C3CCCNC3)c(-c3ccncc3)c2c1 (stereo not shown) [MMV024311] | 9.78 ± 0.2 µM | 5.00 |  |  |
